# According to US7968556B2, “Heteroaryl compounds, compositions thereof, and methods of treatment therewith” (Signal Pharmaceuticals, LLC, priority 2006, dated 2011):
row,Structure (SMILES),melting point
1,"COc1ccccc1-n1c(=O)[nH]c2c(C(N)=O)nc(N[C@H]3CC[C@@H](O)CC3)nc21 [Compound 110, 2-(cis-4-Hydroxycyclohexylamino)-9-(2-methoxyphenyl)-8-oxo-8,9-dihydro-7H-purine-6-carboxamide]",295 to 297 °C
2,"NC(=O)c1nc(-c2cnc3nc[nH]c3c2)nc2c1[nH]c(=O)n2C1CCCCC1 [Compound 150, 9-Cyclohexyl-2-(1H-imidazo[4,5-b]pyridin-6-yl)-8-oxo-8,9-dihydro-7H-purine-6-carboxamide]",320 °C (dec.)
3,"COc1ccccc1-n1cnc2c(C(N)=O)nc(-c3ccccc3O)nc21 [Compound 70, 2-(2-Hydroxyphenyl)-9-(2-methoxyphenyl)purine-6-carboxamide]",278 to 280 °C
4,"NC(=O)c1nc(-c2ccc3nc[nH]c3c2)nc2c1[nH]c(=O)n2C1CCCCC1 [Compound 156, 2-(1H-benzo[d]imidazol-6-yl)-9-cyclohexyl-8-oxo-8,9-dihydro-7H-purine-6-carboxamide]",280 °C (dec.)
5,"CO[C@H]1CC[C@@H](n2c(=O)[nH]c3c(C(N)=O)nc(-c4cccc(O)c4)nc32)CC1 [Compound 144, 9-(cis-4-Methoxycyclohexyl)-2-(3-hydroxyphenyl)-8-oxo-8,9-dihydro-7H-purine-6-carboxamide]",345 to 347 °C
6,"CO[C@H]1CC[C@H](n2c(=O)[nH]c3c(C(N)=O)nc(-c4cccc(O)c4)nc32)CC1 [Compound 143, 9-(trans-4-Methoxycyclohexyl)-2-(3-hydroxyphenyl)-8-oxo-8,9-dihydro-7H-purine-6-carboxamide]",355 to 357 °C

# Second part, the molecule after the results:
row,melting point,Structure (SMILES)
1,265 to 266 °C,"COC(=O)c1cccc(-c2nc(C(N)=O)c3[nH]c(=O)n(-c4ccccc4OC)c3n2)c1 [Compound 61, Methyl 3-(6-carbamoyl-9-(2-methoxyphenyl)-8-oxo-8,9-dihydro-7H-purin-2-yl)benzoate]"
2,223 to 224 °C,"COc1ccccc1-n1c(=O)[nH]c2c(C(N)=O)nc(Nc3ccc(O)cc3)nc21 [Compound 46, 2-(4-Hydroxyphenylamino)-9-(2-methoxyphenyl)-8-oxo-8,9-dihydro-7H-purine-6-carboxamide]"
3,331 to 335 °C,"NC(=O)c1nc(-c2cccnc2O)nc2c1[nH]c(=O)n2-c1ccccc1C(F)(F)F [Compound 129, 2-(2-Hydroxypyridin-3-yl)-8-oxo-9-(2-(trifluoromethyl)phenyl)-8,9-dihydro-7H-purine-6-carboxamide]"
4,318 to 319 °C,"COc1ccccc1-n1c(=O)[nH]c2c(C(N)=O)nc(-n3cnc4ccccc43)nc21 [Compound 134, 2-(1H-Benzo[d]imidazol-1-yl)-9-(2-methoxyphenyl)-8-oxo-8,9-dihydro-7H-purine-6-carboxamide]"
5,> 260 °C,"COc1ccc(-n2c(=O)[nH]c3c(C(N)=O)nc(-c4cccc(O)c4)nc32)c(F)c1 [Compound 155, 9-(2-Fluoro-4-methoxyphenyl)-2-(3-hydroxyphenyl)-8-oxo-8,9-dihydro-7H-purine-6-carboxamide]"
6,> 260 °C,"NC(=O)c1nc(-c2cccc(O)c2)nc2c1[nH]c(=O)n2-c1ccccc1C1CCCC1 [Compound 153, 9-(2-Cyclopentylphenyl)-2-(3-hydroxyphenyl)-8-oxo-8,9-dihydro-7H-purine-6-carboxamide]"
7,358 °C (dec.),"COc1ccccc1-n1c(=O)[nH]c2c(C(N)=O)nc(-c3cnc4nc[nH]c4c3)nc21 [Compound 130, 2-(1H-Imidazo[4,5-b]pyridin-6-yl)-9-(2-methoxyphenyl)-8-oxo-8,9-dihydro-7H-purine-6-carboxamide]"
8,320 °C (dec.),"CC(C)c1ccccc1-n1c(=O)[nH]c2c(C(N)=O)nc(-c3cnc4nc[nH]c4c3)nc21 [Compound 135, 2-(1H-Imidazo[4,5-b]pyridin-6-yl)-9-(2-isopropylphenyl)-8-oxo-8,9-dihydro-7H-purine-6-carboxamide]"
